Experimental data published in patent US20150175530A1, “ANTIBACTERIAL AGENTS” (priority 2012, published 2015).
≈ marks a conversion by molar mass, not a printed value. Read-outs that look alike come from different tables or passages of the source.

Columns and labels:
[1] = system: bacterial isolates (clinical isolates and ATCC quality control strains); assay: Minimum Inhibitory Concentrations (MICs) by broth microdilution (CLSI susceptibility testing); type: cell-based; settings: for Minimum Inhibitory Concentrations (MICs) APAE001: APAE001 is Pseudomonas aeruginosa ATCC27853
Protocol: Bacterial isolates were cultivated from −70° C. frozen stocks by overnight passages at 35° C. in ambient air on Mueller-Hinton agar (Beckton Dickinson, Franklin Lakes, N.J.). Clinical isolates tested were obtained from various geographically diverse hospitals in the US and abroad (Focus Diagnostics, Herndon, Va. and JMI, North Liberty, Iowa). Quality control strains were from the American Type Culture Collection (ATCC; Rockville, Md.).
Minimum Inhibitory Concentrations (MICs) were determined by the broth microdilution method in accordance with the Clinical and Laboratory Standards Institute (CLSI) guidelines. In brief, organism suspensions were adjusted to a 0.5 McFarland standard to yield a final inoculum between 3×10^5 and 7×10^5 colony-forming units (CFU)/mL. Drug dilutions and inocula were made in sterile, cation adjusted Mueller-Hinton Broth (Beckton Dickinson). An inoculum volume of 100 μL was added to wells containing 100 μL of broth with 2-fold serial dilutions of drug. All inoculated microdilution trays were incubated in ambient air at 35° C. for 18-24 h. Following incubation, the lowest concentration of the drug that prevented visible growth (OD600 nm<0.05) was recorded as the MIC. Performance of the assay was monitored by the use of laboratory quality-control strains and levofloxacin, a compound with a defined MIC spectrum, in accordance with CLSI guidelines.

[2] = system: 3 P. aeruginosa strains (APAE001, APAE002, APAE006); assay: Protein binding: fold change in MIC in the presence of 2% HSA and 0.05% AGP, Geomean of 3 strains; type: cell-based, Pseudomonas aeruginosa; settings: MIC in the presence of 2% HSA and 0.05% AGP divided by MIC in the absence; Geomean of 3 P. aeruginosa strains (APAE001, APAE002, APAE006)
Protocol: The effect of human serum albumin (HSA) and α-1-acid glycoprotein (AGP) from human plasma, which are known to nonspecifically bind to certain antibiotics and thereby reduce their activity (Banéres-Roquet et al. 2009 “Use of a Surface Plasmon Resonance Method to Investigate Antibiotic and Plasma Protein Interactions” Antimicrob. Agents and Chemother. 53(4):1528-1531), was assessed against 3 P. aeruginosa strains (APAE001, APAE002, APAE006). APAE001 is Pseudomonas aeruginosa ATCC27853; APAE002 is a wildtype lab strain of Pseudomonas aeruginosa known as PAM1020 or PA01. APAE006 is a strain of […]/PA01 with efflux deletions: delta mexAB-oprM::CM delta CD-oprJ::Gm delta mexEF-oprN::omega Hg. Lomovskaya, 0 et al. 1999. Use of a Genetic Approach To Evaluate the Consequences of Inhibition of Efflux Pumps in P aeruginosa. Antimicrob. Agents Chemother. 43: 1340-1346.
The standard procedure described in Susceptibility Testing was utilized with one adjustment, specifically 2% HSA and 0.05% AGP were added to the cation adjusted Mueller-Hinton Broth. The MIC for each strain of interest was then assessed in the presence and absence of HSA/AGP. Following MIC determination, the fold change in MIC was determined for each individual strain by dividing the MIC in the presence of HSA/AGP by the MIC in the absence of HSA/AGP. The protein binding Geomean was then calculated using these 3 values.

[3] = APAE1096 is a clinical isolate, broth microdilution, read-out: Minimum Inhibitory Concentrations (MICs) APAE1096
[4] = Pseudomonas aeruginosa, APAE002 is a wildtype lab strain of Pseudomonas aeruginosa known as PAM1020 or PA01, broth microdilution, read-out: Minimum Inhibitory Concentrations (MICs) APAE002
[5] = Pseudomonas aeruginosa, ATCC27853, APAE001 is Pseudomonas aeruginosa ATCC27853, broth microdilution, read-out: Minimum Inhibitory Concentrations (MICs) APAE001
[6] = APAE1096 is a clinical isolate, broth microdilution
[7] = APAE002 is a wildtype lab strain of Pseudomonas aeruginosa known as PAM1020 or PA01, broth microdilution

| SMILES | MIC [1, 3] [µg/mL] | MIC [1, 4] [µg/mL] | MIC [1, 5] [µg/mL] | Protein Binding PB (Geomean of fold change in MIC) [2] | Minimum Inhibitory Concentrations (MICs) APAE1096 [1, 6] | also measured |
| --- | --- | --- | --- | --- | --- | --- |
| CC(C)(N)[C@H](NC(=O)c1ccc(C#CC#CC2C[C@H]2C(O)CO)cc1)C(=O)NO (mixture of isomers) [Compound 25, N—((S)-3-amino-1-(hydroxyamino)-3-methyl-1-oxobutan-2-yl)-4-((2-(1,2-dihydroxyethyl)cyclopropyl)buta-1,3-diynyl)benzamide] | 1 to 8 (≈ 2.5 to 20 µM) | < 1 | < 1 | 11.5 |  |  |
| CC(C#CC#Cc1ccc(C(=O)N[C@H](C(=O)NO)C(C)(C)N)cc1)C(O)CO (single isomer, unassigned) [Compound 20A] | 8 to 16 (≈ 20.6 to 41.3 µM) | 1 to 8 (≈ 2.58 to 20.6 µM) | 1 to 8 (≈ 2.58 to 20.6 µM) | 2.0 |  |  |
| CC(C#CC#Cc1ccc(C(=O)N[C@H](C(=O)NO)C(C)(C)N)cc1)C(O)CO (single isomer, unassigned) [Compound 20B] |  |  |  | 1.0 |  |  |
| CC(C)(N)[C@H](NC(=O)c1ccc(C#CC#CC2C[C@H](O)[C@@H]2CO)cc1)C(=O)NO (single isomer, unassigned) [Compound 30A] |  | < 1 | < 1 | 2.5 | C (C = MIC's of greater than 8.0 μg/mL to 16.0 μg/mL) |  |
| CC(C)(N)[C@H](NC(=O)c1ccc(C#CC#CC2CC(O)[C@@H]2CO)cc1)C(=O)NO (single isomer, unassigned) [Compound 30B] |  |  |  | 3.2 | B (B = MIC's of greater than 1.0 μg/mL to 8.0 μg/mL) | Minimum Inhibitory Concentrations (MICs) APAE001 ([1]; broth microdilution): A (A = MIC's of 1.0 μg/mL or less); Minimum Inhibitory Concentrations (MICs) APAE002 [1, 7]: A (A = MIC's of 1.0 μg/mL or less) |
| CC(C)(N)[C@H](NC(=O)c1ccc(C#CC#CC2C[C@@H](O)[C@H]2CO)cc1)C(=O)NO (single isomer, unassigned) [Compound 31A] |  | 1 to 8 (≈ 2.5 to 20 µM) | 1 to 8 (≈ 2.5 to 20 µM) | 2.5 | C (C = MIC's of greater than 8.0 μg/mL to 16.0 μg/mL) |  |
| CC(C)(N)[C@H](NC(=O)c1ccc(C#CC#CC2CC(O)[C@H]2CO)cc1)C(=O)NO (single isomer, unassigned) [Compound 31B] |  |  |  | 3.2 | B (B = MIC's of greater than 1.0 μg/mL to 8.0 μg/mL) | Minimum Inhibitory Concentrations (MICs) APAE001 ([1]; broth microdilution): A (A = MIC's of 1.0 μg/mL or less); Minimum Inhibitory Concentrations (MICs) APAE002 [1, 7]: A (A = MIC's of 1.0 μg/mL or less) |
| CC(C)(N)[C@H](NC(=O)c1ccc(C#CC#CCO)cc1)C(=O)NO [Compound 1, (S)—N-(3-amino-1-(hydroxyamino)-3-methyl-1-oxobutan-2-yl)-4-(5-hydroxypenta-1,3-diynyl)benzamide] |  |  |  | 4.1 |  | MIC ([1]; Pseudomonas aeruginosa, ATCC27853, read-out: Minimum Inhibitory Concentrations (MICs) APAE001): < 1 µg/mL; MIC ([1]; Pseudomonas aeruginosa, read-out: Minimum Inhibitory Concentrations (MICs) APAE002): < 1 µg/mL; MIC ([1]; read-out: Minimum Inhibitory Concentrations (MICs) APAE1096): < 1 µg/mL |
| CC(C)(N)[C@H](NC(=O)c1ccc(C#CCO)cc1)C(=O)NO [Compound 2, (S)—N-(3-amino-1-(hydroxyamino)-3-methyl-1-oxobutan-2-yl)-4-(3-hydroxyprop-1-ynyl)benzamide] | 8 to 16 (≈ 26.2 to 52.4 µM) | 1 to 8 (≈ 3.28 to 26.2 µM) | < 1 | 1.3 |  |  |
| CC(C)(O)[C@H](NC(=O)c1ccc(C#CC#CCO)cc1)C(=O)NO [Compound 4, (S)—N-(3-hydroxy-1-(hydroxyamino)-3-methyl-1-oxobutan-2-yl)-4-(5-hydroxypenta-1,3-diynyl)benzamide] | 1 to 8 (≈ 3.03 to 24.2 µM) | < 1 | < 1 |  |  |  |
| CC(C)(N)[C@H](NC(=O)c1ccc(C#CC#CC(O)CCO)cc1)C(=O)NO (stereo partly drawn) [Compound 46, N—((S)-3-amino-1-(hydroxyamino)-3-methyl-1-oxobutan-2-yl)-4-(5,7-dihydroxyhepta-1,3-diyn-1-yl)benzamide] | 1 to 8 (≈ 2.68 to 21.4 µM) | < 1 | < 1 |  |  |  |
| CC(C)(O)[C@H](NC(=O)c1ccc(C#CC#CC(O)CO)cc1)C(=O)NO (stereo partly drawn) [Compound 60, 4-(5,6-dihydroxyhexa-1,3-diyn-1-yl)-N—((S)-3-hydroxy-1-(hydroxyamino)-3-methyl-1-oxobutan-2-yl)benzamide] |  |  | 1 to 8 (≈ 2.77 to 22.2 µM) |  |  |  |
